In patent publication US20230312587A1, “PTERIDINONE COMPOUNDS AND USES THEREOF” (Vertex Pharmaceutical Incorporated, priority 2018, published 2023):

tested on: β-catenin-TCF-mediated reporter transcription activity in Colo 205 cells; assay: Colo 205 reporter assay (TCF/LEF luciferase); type: cell-based; settings: Homo sapiens, COLO 205, 5 h, Colo 205 TCF/LEF luciferase reporter, five hours after addition of compound; read-out: TCF reporter Colo205 IC50
How it was run: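 Luciferase signal from a TCF/LEF-driven reporter, stably integrated in Colo 205 colon cancer cells, was measured 5 h after compound addition.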

SMILES	IC50
Cc1nc(NC2CN(C(=O)[C@H](C)c3ccccc3)C2)nc2c1NC(=O)[C@H](C(C)C)N2C [Compound 627, (S)-7-isopropyl-4,8-dimethyl-2-((1-((R)-2-phenylpropanoyl)azetidin-3-yl)amino)-7,8-dihydropteridin-6(5H)-one]	1000 to 5000 nM
Cc1nc(N[C@H]2C[C@@H](COc3ccc4c(c3)OCO4)C2)nc2c1NC(=O)[C@H](C(C)C)N2C [Compound 580, (S)-2-((cis-3-((benzo[d][1,3]dioxol-5-yloxy)methyl)cyclobutyl)amino)-7-isopropyl-4,8-dimethyl-7,8-dihydropteridin-6(5H)-one]	300 to 1000 nM
Cc1nc(NCc2cnn(C3CCNCC3)c2)nc2c1NC(=O)[C@H](C)N2C [Compound 99, (7S)-4,7,8-Trimethyl-2-(((1-(piperidin-4-yl)-1H-pyrazol-4-yl)methyl)amino)-7,8-dihydropteridin-6(5H)-one]	≥ 5000 nM
Cc1nc(N[C@H]2C[C@H](OCc3ccc(F)c(F)c3)C2)nc2c1N(C)C(=O)[C@H](C)N2C [Compound 266, (7S)-2-((trans-3-((3,4-difluorobenzyl)oxy)-cyclobutyl)amino)-4,5,7,8-tetramethyl-7,8-dihydropteridin-6(5H)-one]	300 to 1000 nM
Cc1nc(N[C@H]2C[C@@H](Nc3cc(C(F)(F)F)ncn3)C2)nc2c1NC(=O)[C@H](C)N2C [Compound 552, (S)-4,7,8-trimethyl-2-((cis-3-((6-(trifluoromethyl)pyrimidin-4-yl)amino)cyclobutyl)amino)-7,8-dihydropteridin-6(5H)-one]	≥ 5000 nM
Cc1nc(N[C@H]2C[C@@H](Nc3nc(C(F)(F)F)nn3C)C2)nc2c1NC(=O)[C@H](C(C)C)N2C [Compound 569, (S)-7-isopropyl-4,8-dimethyl-2-((cis-3-((1-methyl-3-(trifluoromethyl)-1H-1,2,4-triazol-5-yl)amino)cyclobutyl)amino)-7,8-dihydropteridin-6(5H)-one]	1000 to 5000 nM
Cc1nc(N[C@H]2C[C@@H](NC(=O)NC3CCC(F)(F)CC3)C2)nc2c1NC(=O)[C@H](C(C)C)N2C [Compound 526, 1-(4,4-difluorocyclohexyl)-3-(cis-3-(((S)-7-isopropyl-4,8-dimethyl-6-oxo-5,6,7,8-tetrahydropteridin-2-yl)amino)cyclobutyl)urea]	≥ 5000 nM
Cc1nc(N[C@H]2C[C@H](Oc3cc(F)c(F)cc3F)C2)nc2c1N(C)C(=O)[C@H](C)N2C [Compound 294, (7S)-4,5,7,8-tetramethyl-2-((trans-3-(2,4,5-trifluorophenoxy)-cyclobutyl)amino)-7,8-dihydropteridin-6(5H)-one]	< 300 nM
COc1ccc(O[C@H]2C[C@H](Nc3nc(C)c4c(n3)N(C)[C@@H](C)C(=O)N4C)C2)cc1F [Compound 351, (7S)-2-((trans-3-(3-fluoro-4-methoxyphenoxy)cyclobutyl)amino)-4,5,7,8-tetramethyl-7,8-dihydropteridin-6(5H)-one]	1000 to 5000 nM
C[C@H]1C(=O)Nc2cnc(NC3CN(Cc4ccccc4)C3)nc2N1C [Compound 245, (7S)-2-((1-benzylazetidin-3-yl)amino)-7,8-dimethyl-7,8-dihydropteridin-6(5H)-one]	≥ 5000 nM
Cc1nc(NCc2cnn(Cc3ccnc(F)c3)c2)nc2c1NC(=O)[C@H](C)N2C [Compound 180, (7S)-2-(((1-((2-fluoropyridin-4-yl)methyl)-1H-pyrazol-4-yl)methyl)amino)-4,7,8-trimethyl-7,8-dihydropteridin-6(5H)-one]	< 300 nM
Cc1nc(NC2CN(C(=O)c3cc(C(C)C)on3)C2)nc2c1NC(=O)[C@H](C(C)C)N2C [Compound 619, (S)-7-isopropyl-2-((1-(5-isopropylisoxazole-3-carbonyl)azetidin-3-yl)amino)-4,8-dimethyl-7,8-dihydropteridin-6(5H)-one]	1000 to 5000 nM
Cc1nc(N[C@H]2C[C@H](Sc3ccc(C(F)(F)F)cc3)C2)nc2c1N(C)C(=O)[C@H](C)N2C [Compound 320, (7S)-4,5,7,8-tetramethyl-2-((trans-3-((4(trifluoromethyl)phenyl)thio)-cyclobutyl)-amino)-7,8-dihydropteridin-6(5H)-one]	1000 to 5000 nM

Continued, values first:

IC50	SMILES
< 300 nM	Cc1nc(N[C@H]2C[C@@H](COCc3ccc(F)cc3)C2)nc2c1NC(=O)[C@H](C)N2C [Compound 286, (7S)-2-((cis-3-(((4-fluorobenzyl)oxy)methyl)cyclobutyl)amino)-4,7,8-trimethyl-7,8-dihydropteridin-6(5H)-one]
< 300 nM	CC(=O)c1nc(C(F)(F)F)ccc1Cn1cc(CNc2nc(C)c3c(n2)N(C)[C@@H](C)C(=O)N3)cn1 [Compound 413, (7S)-2-(((1-((2-acetyl-6-(trifluoromethyl)pyridin-3-yl)methyl)-1H-pyrazol-4-yl)methyl)amino)-4,7,8-trimethyl-7,8-dihydropteridin-6(5H)-one]
< 300 nM	CC[C@H]1C(=O)Nc2c(C)nc(N[C@H]3C[C@@H](Nc4cnc(C(F)(F)F)cn4)C3)nc2N1C [Compound 648, (S)-7-ethyl-4,8-dimethyl-2-((cis-3-((5-(trifluoromethyl)pyrazin-2-yl)amino)cyclobutyl)amino)-7,8-dihydropteridin-6(5H)-one]
< 300 nM	Cc1nc(N[C@H]2C[C@@H](COc3ccc(C#N)nc3)C2)nc2c1NC(=O)[C@H](C(C)C)N2C [Compound 572, 5-((cis-3-(((S)-7-isopropyl-4,8-dimethyl-6-oxo-5,6,7,8-tetrahydropteridin-2-yl)amino)cyclobutyl)methoxy)picolinonitrile]
< 300 nM	Cc1cc(OC(C)C)ncc1Cn1cc(CNc2nc(C)c3c(n2)N(C)[C@@H](C)C(=O)N3)cn1 [Compound 168, (7S)-2-(((1-((6-isopropoxy-4-methylpyridin-3-yl)methyl)-1H-pyrazol-4-yl)methyl)amino)-4,7,8-trimethyl-7,8-dihydropteridin-6(5H)-one]
< 300 nM	Cc1nc(NCc2cnn(Cc3ccc(F)cc3C(F)(F)F)c2)nc2c1NC(=O)[C@H](C)N2C [Compound 67, (7S)-2-(((1-(4-fluoro-2-(trifluoromethyl)benzyl)-1H-pyrazol-4-yl)methyl)amino)-4,7,8-trimethyl-7,8-dihydropteridin-6(5H)-one]
< 300 nM	Cc1nc(NCc2cnn(Cc3ccnc(N(C)C)c3)c2)nc2c1NC(=O)[C@H](C(C)C)N2C [Compound 448, (S)-2-(((1-((2-(dimethylamino)pyridin-4-yl)methyl)-1H-pyrazol-4-yl)methyl)amino)-7-isopropyl-4,8-dimethyl-7,8-dihydropteridin-6(5H)-one]
< 300 nM	COc1nc(C(F)(F)F)ccc1Cn1cc(CNc2nc(C)c3c(n2)N(C)[C@@H](C)C(=O)N3)cn1 [Compound 218, (7S)-2-(((1-((2-methoxy-6-(trifluoromethyl)pyridin-3-yl)methyl)-1H-pyrazol-4-yl)methyl)amino)-4,7,8-trimethyl-7,8-dihydropteridin-6(5H)-one]

same assay, conditions: Homo sapiens, COLO 205, 5 h, R-isomer at C2 (corresponding to C2 S-isomer); Colo 205 TCF/LEF luciferase reporter, 5 h; read-out: TCF reporter Colo205 IC50

IC50	SMILES
1000 to 5000 nM	Cc1nc(NCc2cnn(Cc3ccc(C(F)(F)F)nc3)c2)nc2c1NC(=O)[C@@H](C1CC1)N2C [Compound I-1639]
< 300 nM	COc1c(F)cc(Cn2cc(CNc3nc(C)c4c(n3)N(C)[C@H](C)C(=O)N4)cn2)cc1F [Compound I-1205]
